Laboratory results as given in ChEMBL document CHEMBL1126844, “Hydroxylated 2-(5'-salicyl)naphthalenes as protein-tyrosine kinase inhibitors” (J Med Chem, 1993).

Target: Tyrosine-protein kinase Lck (Homo sapiens, UniProt P06239)
Assay: Inhibition of protein-tyrosine kinase p56lck

Chain of Tyrosine-protein kinase Lck (P06239 whole entry): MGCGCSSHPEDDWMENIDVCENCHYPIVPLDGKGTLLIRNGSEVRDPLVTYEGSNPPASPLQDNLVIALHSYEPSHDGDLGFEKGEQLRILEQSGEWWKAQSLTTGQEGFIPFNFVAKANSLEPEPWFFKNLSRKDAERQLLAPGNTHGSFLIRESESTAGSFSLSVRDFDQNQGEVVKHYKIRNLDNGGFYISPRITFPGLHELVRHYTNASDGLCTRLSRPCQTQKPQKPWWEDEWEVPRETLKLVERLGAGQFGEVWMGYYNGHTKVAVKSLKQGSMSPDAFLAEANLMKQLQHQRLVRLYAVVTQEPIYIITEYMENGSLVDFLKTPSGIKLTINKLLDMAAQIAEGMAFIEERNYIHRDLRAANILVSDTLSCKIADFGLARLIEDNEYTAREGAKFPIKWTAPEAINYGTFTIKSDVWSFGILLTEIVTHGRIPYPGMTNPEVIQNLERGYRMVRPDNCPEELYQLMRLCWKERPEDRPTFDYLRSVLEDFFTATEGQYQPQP

SMILES | IC50
O=C(O)c1cc(-c2ccc3c(O)ccc(O)c3c2)ccc1O | 65 µM
O=C(O)c1cc(-c2ccc3ccccc3c2)ccc1O | > 200 µM
O=C(O)c1cc(-c2ccc3c(O)c(O)ccc3c2)ccc1O | 42 µM
O=C(O)c1cc(-c2ccc3cc(O)c(O)cc3c2)ccc1O | 150 µM
